Source: ChEMBL document CHEMBL1201862, “PubChem BioAssay data set” (2004)
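Results reflect a 48-hour exposure of cells in 96-well plates to compound at five concentrations. Abbreviation: GI50, concentration required for 50% inhibition of growth.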 The source made the active and inactive calls. Cut-off read from the data, not from the text of the source: active = GI50 up to about 1.1 µM and inactive = higher.

Assays:
Assay in all cases: DTP human tumour cell line panel, 48 h
[1] = system: RPMI-8226
[2] = system: LOX IMVI
[3] = system: OVCAR-8
[4] = system: A498
[5] = system: SF-295
[6] = system: SW-620
[7] = system: UACC-257
[8] = system: A549
[9] = system: MDA-MB-435
[10] = system: SNB-75
[11] = system: HL-60
[12] = system: ACHN
[13] = system: CCRF-CEM
[14] = system: TK-10
[15] = system: UO-31
[16] = system: UACC-62
[17] = system: BT-549
[18] = system: KM12
[19] = system: EKVX
[20] = system: K562
[21] = system: SK-OV-3
[22] = system: NCI-H226
[23] = system: MCF7
[24] = system: HCT-15
[25] = system: COLO 205
[26] = system: OVCAR-5
[27] = system: HCT-116
[28] = system: OVCAR-3
[29] = system: T47D
[30] = system: HOP-92
[31] = system: SK-MEL-28
[32] = system: HOP-62
[33] = system: IGROV-1
[34] = system: RXF 393
[35] = system: HT-29
[36] = system: SK-MEL-2
[37] = system: SK-MEL-5
[38] = system: M14
[39] = system: DU-145
[40] = system: NCI/ADR-RES
[41] = system: SF-539
[42] = system: Hs-578T
[43] = system: HCC 2998
[44] = system: NCI-H23
[45] = system: SR
[46] = system: SF-268
[47] = system: MOLT-4
[48] = system: OVCAR-4
[49] = system: U-251
[50] = system: Malme-3M
[51] = system: NCI-H460
[52] = system: 786-0
[53] = system: CAKI-1
[54] = system: SNB-19
[55] = system: MDA-MB-231
[56] = system: PC-3
[57] = system: SN12C
[58] = system: NCI-H522

With `Cn1c(-c2cccc(N)c2)[n+](C)c2ccccc21` the GI50 [1] was > 100 µM (inactive), the GI50 [2] was > 100 µM (inactive) and the GI50 [3] was > 100 µM (inactive). The GI50 [4] was 22.4 µM (inactive), the GI50 [5] was > 100 µM (inactive) and the GI50 [6] was > 100 µM (inactive). The GI50 [7] was > 100 µM (inactive), the GI50 [8] was 40.9 µM (inactive) and the GI50 [9] was > 100 µM (inactive). The GI50 [10] was > 100 µM (inactive), the GI50 [11] was 36.1 µM (inactive) and the GI50 [12] was > 100 µM (inactive). The GI50 [13] was 53.1 µM (inactive), the GI50 [14] was > 100 µM (inactive) and the GI50 [15] was > 100 µM (inactive). For the same compound, the GI50 [16] was > 100 µM (inactive), the GI50 [17] was > 100 µM (inactive) and the GI50 [18] was > 100 µM (inactive). For the same compound, the GI50 [19] was > 100 µM (inactive), the GI50 [20] was > 100 µM (inactive) and the GI50 [21] was > 100 µM (inactive). The GI50 [22] was > 100 µM (inactive), the GI50 [23] was > 100 µM (inactive) and the GI50 [24] was > 100 µM. The GI50 [25] was 38.7 µM (inactive), the GI50 [26] was > 100 µM (inactive) and the GI50 [27] was > 100 µM (inactive). For the same compound, the GI50 [28] was > 100 µM (inactive), the GI50 [29] was > 100 µM (inactive) and the GI50 [30] was > 100 µM (inactive). For the same compound, the GI50 [31] was > 100 µM (inactive), the GI50 [32] was > 100 µM (inactive) and the GI50 [33] was > 100 µM (inactive). The GI50 [34] was > 100 µM (inactive), the GI50 [35] was > 100 µM (inactive) and the GI50 [36] was > 100 µM (inactive). For the same compound, the GI50 [37] was 57.3 µM (inactive), the GI50 [38] was > 100 µM (inactive) and the GI50 [39] was > 100 µM (inactive). For the same compound, the GI50 [40] was > 100 µM (inactive), the GI50 [41] was > 100 µM (inactive) and the GI50 [42] was 64.6 µM (inactive). The GI50 [43] was > 100 µM (inactive), the GI50 [44] was 48.3 µM (inactive) and the GI50 [45] was > 100 µM (inactive). For the same compound, the GI50 [46] was > 100 µM (inactive), the GI50 [47] was > 100 µM (inactive) and the GI50 [48] was > 100 µM (inactive). The GI50 [49] was > 10 µM (inactive), the GI50 [50] was > 100 µM (inactive) and the GI50 [51] was > 100 µM (inactive). For the same compound, the GI50 [52] was > 100 µM (inactive), the GI50 [53] was > 100 µM (inactive) and the GI50 [54] was 60.3 µM (inactive). For the same compound, the GI50 [55] was > 100 µM (inactive) and the GI50 [56] was > 100 µM (inactive).
In the case of `O=C(/C=C/c1c(O)nc2ccccc2c1O)CC(=O)C(=O)Nc1cccc(O)c1`, the GI50 [1] is reported as > 100 µM (inactive), the GI50 [2] is reported as > 100 µM (inactive) and the GI50 [3] is reported as > 100 µM (inactive). For the same compound, the GI50 [4] was > 100 µM (inactive), the GI50 [5] was > 100 µM (inactive) and the GI50 [6] was > 100 µM (inactive). The GI50 [57] was > 100 µM (inactive), the GI50 [7] was > 100 µM (inactive) and the GI50 [8] was > 100 µM (inactive). For the same compound, the GI50 [9] was > 100 µM (inactive), the GI50 [10] was > 100 µM (inactive) and the GI50 [11] was > 100 µM (inactive). The GI50 [12] was > 100 µM (inactive), the GI50 [13] was 21.1 µM (inactive) and the GI50 [14] was > 100 µM (inactive). The GI50 [15] was > 100 µM (inactive), the GI50 [16] was > 100 µM (inactive) and the GI50 [17] was > 100 µM (inactive). The GI50 [18] was > 100 µM (inactive), the GI50 [19] was > 100 µM (inactive) and the GI50 [20] was > 100 µM (inactive). For the same compound, the GI50 [21] was > 100 µM (inactive), the GI50 [22] was > 100 µM (inactive) and the GI50 [23] was > 100 µM (inactive). For the same compound, the GI50 [24] was > 100 µM, the GI50 [25] was > 100 µM (inactive) and the GI50 [26] was > 100 µM (inactive). For the same compound, the GI50 [27] was > 100 µM (inactive), the GI50 [28] was > 100 µM (inactive) and the GI50 [29] was > 100 µM (inactive). For the same compound, the GI50 [30] was > 100 µM (inactive), the GI50 [31] was > 100 µM (inactive) and the GI50 [33] was > 100 µM (inactive). For the same compound, the GI50 [35] was > 100 µM (inactive), the GI50 [36] was > 100 µM (inactive) and the GI50 [37] was > 100 µM (inactive). For the same compound, the GI50 [38] was > 100 µM (inactive), the GI50 [39] was > 100 µM (inactive) and the GI50 [40] was > 100 µM (inactive). The GI50 [41] was > 100 µM (inactive), the GI50 [42] was > 100 µM (inactive) and the GI50 [43] was > 100 µM (inactive). For the same compound, the GI50 [44] was > 100 µM (inactive), the GI50 [58] was > 100 µM (inactive) and the GI50 [46] was > 100 µM (inactive). For the same compound, the GI50 [47] was > 100 µM (inactive), the GI50 [48] was > 100 µM (inactive) and the GI50 [49] was > 100 µM (inactive). For the same compound, the GI50 [50] was > 100 µM (inactive), the GI50 [51] was > 100 µM (inactive) and the GI50 [52] was > 100 µM (inactive). For the same compound, the GI50 [53] was > 100 µM (inactive), the GI50 [54] was > 100 µM (inactive) and the GI50 [55] was > 100 µM (inactive). The GI50 [56] was > 100 µM (inactive).
